These results are taken from patent publication US11464738B2, “Ionic liquid-based nanoemulsion formulation for the efficient delivery of hydrophilic and hydrophobic therapeutic agents” (Wisconsin Alumni Research Foundation, priority 2018, dated 2022).

Entries after “also recorded” stand apart in the source; their conditions may differ.

One series concerns zebrafish (Danio rerio). Put plainly: Embryo-larval zebrafish developmental toxicity assay. It counts as in vivo. The settings on record: for in vivo toxicity in zebrafish (in words): developmental toxicity assay. As for the experimental part: In Vivo Developmental Toxicity Study. An embryo-larval zebrafish (Danio rerio) model was used to evaluate the toxicity of the novel dicationic cholinium-based ionic liquid. The following protocol was taken from previously published protocol, analyzing the toxicity of a novel triphilic polymers for use as a component in a nanoemulsion.^1 Zebrafish of the AB strain were obtained from Dr. Michael Taylor at the University of Wisconsin-Madison School of Pharmacy, where the fish were cultured until sexual maturation. Zebrafish were maintained in a light/dark cycle of 14:10 h at 28.5° C. in egg water (0.03% Instant Ocean, Blacksburg, Va., USA). The adult fish were fed Anemia nauplii twice daily. Embryos were obtained from adult fish with a ratio of 1:2 for female to male. Six breeding groups were placed in separate spawning aquariums, equipped with a mesh bottom to prevent the eggs from being cannibalized. Crossing was induced in the morning. After one hour, eggs free of macroscopically discernible symptoms of infection and disease were collected, rinsed with egg water, and transferred into Petri dishes until chemical exposure. The embryo-larval toxicity assay was subsequently carried out. 8 fertilized eggs at 2 hours post fertilization (hpf) stage were added to a 24-well plate. Each well was filled with eggs and contained 600 μL of egg water. Six concentrations plus two controls (negative and positive) were plated. For analysis of [DC-7][2Br], sodium bis(trifluoromethylsulfonyl)imide, and [DC-7][2NTf2] containing nanoemulsion the concentrations analyzed were 1 mM, 333 μM, 111 μM, 37 μM, 12.3 μM, and 4.1 μM. 1.5 mL of [DC-7][2NTf2] was added to a 15 mL conical centrifuge tube followed by 1.5 mL of egg water. The sample was allowed to sit for 6 days prior to use. Each day, the sample was sonicated at 40° C. for 6 hours and then allowed to remain at room temperature for 18 hours. After 6 days, the sample was centrifuged at 2000 rpm for 5 minutes to ensure complete sedimentation of the ionic liquid. 1.2 mL of egg water was removed and served as the stock solution. This served as the highest concentration sample. Integration of the internal standard and [DC-7][2NTf2] in the QNMR sample allowed for quantitation of the concentration of [DC-7][2NTf2] present in the stock solution used for the zebrafish viability assay. The concentrations analyzed for [DC-7][2NTf2] sample were 7.11 mM, 3.56 mM, 1.78 mM, 889 μM, 444 μM, and 222 μM.
The plates were covered and incubated at 28.5° C. in a light/dark cycle of 14:10 throughout the 96 hpf exposure period. The observations of zebrafish development were made directly in the well using a stereomicroscope (Nikon SMZ18) every 24 hours. The end points that were selected to monitor the effects of [DC-7][2Br], sodium bis(trifluoromethylsulfonyl)imide, [DC-7][2NTf2] saturated water solution and nanoemulsion included mortality, spontaneous movement, hatching success, pericardial edema, and curved body axis. Embryos and larvae were considered dead when no heartbeat was observed. The number of hatched embryos and a cumulative mortality tally were recorded every 24 h after 2 hpf. At 96 hpf, following the final observations, representative larvae for [DC-7][2Br] and [DC-7][2NTf2] saturated egg water were anesthetized with 0.4% tricaine mesylate solution and mounted on Petri dishes using low melting point agarose. These larvae were then photographed using a high-definition color microscope camera (Nikon DSFi2). Finally, all larvae used for the analysis were euthanized following.

Series [1] is described as follows: UV/vis spectroscopy of the aggregation state of AmB. It counts as physicochemical. The settings on record: for aggregation state of AmB in the medium (in words): AmB solubilized in the ionic liquid or ionic liquid mixture named. As for the experimental part: Measuring absorbance of Amphotericin B (AmB) at distinct wavelengths using UV/vis spectroscopy provides insight into its degree of self-aggregation. Absorption spectra were obtained on a Varian Cary 100Bio UV-vis spectrometer (Varian, Palto Alto, Calif.) at 25° C. using a quartz coverslip with a 0.1 mm pathlength (Starna Cells, Inc., Atascadero, Calif.) or a 1 mm pathlength quartz cuvette (Starna Cells, Inc., Atascadero, Calif.). Absorbance was measured from 300 nm to 500 nm. Samples were prepared by direct addition of AmB powder to neat ionic liquids. Ionic liquids solid at room temperature were first melted using a water bath at 60° C. prior to addition of AmB powder. After addition of solid drug, (1) 100 μL of methanol was then added to the IL mixture and the mixture was stirred at room temperature for 1 hour. (2) The drug/IL mixture was then placed under rotary evaporation in a water bath with at a temperature of 60° C. for 1 hour. (3) The drug/IL mixture was then placed under high vacuum for 1 hour. (4) The drug/IL mixture was then allowed to stir for 1 hour. This process (steps 1-4) was repeated until all drug visibly was solubilized. The drug/IL mixture was then placed under rotary evaporation at 60° C. for an additional hour and then under high vacuum for 24 hours prior to use to ensure removal of all methanol. Samples were shielded from light prior to analysis. Neat ionic liquids served as the baseline for AmB samples solubilized in ionic liquid. Dilution samples were performed using 1×PBS for dilution. Analysis of AmB nanoemulsion required a nanoemulsion without drug as the baseline to correct for inherent scattering of the prepared nanoemulsion.

The conditions of series [2]: literature value; cited from earlier work.
Series [3] is described as follows: Viscosity (Brookfield viscometer). The settings on record: 30.2 ° C. It counts as physicochemical. As for the experimental part: A Brookfield viscometer (Model RVDV-1) was used to analyze the ionic liquids at 30° C. The spindle used on the instrument was CPA-41Z. After addition of 2 mL of sample to the instrument cup, the cup was warmed until all IL samples were completely transparent before beginning the measurement. The RPM was adjusted per sample in order to ensure the percent torque applied per sample was in a consistent range.

The nature of series [4]: Quantitative 19F NMR (QNMR) water-solubility of hydrophobic ionic liquids. It counts as physicochemical. The settings on record: saturated D2O; for solubility at 6 days: 25 °C, water, thermodynamic from solid, read-out: Ionic Liquid Concentration in D2O (water-solubility). The method, then: Example 12A: Quantitative ^19F NMR spectroscopy (QNMR) for determination of concentration of hydrophobic ionic liquids in a water-solution for comparison of water-solubility of hydrophobic ionic liquids.
^19F NMR spectra was measured using a Varian UI 500 MHz spectrometer equipped with a Nalorac Quad Nucleus DD probe (qn6121, 5 mm). The internal temperature of the NMR spectrometer was maintained at 25° C. Sodium trifluoroacetate was used as an internal standard was employed in order to determine the concentration of [DC-7][2NTf2]. The internal standard was prepared in D2O and the stock solution was allowed to sonicate at 30° C. for 4 hours prior to use in order to ensure complete dissolution of sodium trifluoroacetate. Prior to quantitative study, the T1 value of both [DC-7][2NTf2] and sodium trifluoroacetate were determined using an inversion recover experiment acquired with 12 independent quadratically spaced variable (tau) values (values from 0.06944-10). The T1 value was calculated in order to ensure that both signals fully relaxed between pulses. The following parameters were employed for acquisition of T1 spectra: 500 MHz; spectra width, 107962.2 Hz; acquisition time, 1.004 s; number of points, 216688; relaxation delay, 18.996 s; number of transients, 1; 90° pulse width, 17.1 μs. X-Win32 software was used to calculate the T1 value and processing included a line broadening of 1 Hz. The T1 value of the sodium trifluoroacetate and [DC-7][2NTf2] was determined to be 2.76±0.172 seconds and 2.69±0.0885 seconds, respectively. After determination of T1, the QNMR study was completed on an optimized spectrum. […] The acquired spectrum has a signal to noise ratio of 4700, which exceeded the desired 3000 needed for quantitation. […] 0.5 mL of D2O was removed and then subsequently analyzed. Integration of the internal standard and [DC-7][2NTf2] allowed for quantitation of the concentration of [DC-7][2NTf2] present in the stock solution used for the zebrafish viability assay.

With `O=C(O)C(F)(F)C(F)(F)C(F)(F)C(F)(F)C(F)(F)C(F)(F)C(F)(F)F` [PFOA, perfluorooctanoic acid, reference compound], in the series on zebrafish (Danio rerio) (96 hours post-fertilization, concentration not stated (FIG. 64)), the “zebrafish malformations, microscope images (in words)” value was “spinal curvature”.

The compound `O=S(=O)([N-]S(=O)(=O)C(F)(F)F)C(F)(F)F.[Na+]` [sodium bis(trifluoromethylsulfonyl)imide, reference compound] had a zebrafish survival rate in the series with zebrafish (Danio rerio) (111 μM, 96 hours post fertilization) of 87%. Moreover, the “in vivo toxicity in zebrafish (in words)” value in the series on zebrafish (Danio rerio) (96 hours post fertilization) is “minimal toxicity”.

Turning to `CCCCCC(=O)[O-].C[N+](C)(C)CCO` [[Chol][Hex], cholinium hexanoate], the “aggregation state of AmB in the medium (in words)” value in series [1] is reported as “solely the monomeric form”. Also, the “aggregation state of AmB upon dilution (in words)” value in series [1] (dilution with phosphate-buffered saline / saline) is “shifts from primarily the monomeric to the aggregated form; also recorded: concentration dependent aggregation; also recorded: shifted from monomeric to aggregated”.

As to `C[C@@H]1[C@H](O)[C@@H](C)/C=C/C=C/C=C/C=C/C=C/C=C/C=C/[C@H](O[C@@H]2O[C@H](C)[C@@H](O)[C@H](N)[C@@H]2O)C[C@@H]2O[C@](O)(C[C@@H](O)C[C@@H](O)[C@H](O)CC[C@@H](O)C[C@@H](O)CC(=O)O[C@H]1C)C[C@H](O)[C@H]2C(=O)O` [AmB, Amphotericin B], the water solubility in series [2] was < 1.0 µg/mL.

In series [3], `C[N+](C)(CCO)CCOCCOCC[N+](C)(C)CCO` [[DC-ether][2NTf2]] gave a Viscosity of 891.5 cP. Besides, the solubility at 6 days in series [4] came out at 13 mM.

As for `C[N+](C)(CCO)CCCCCCC[N+](C)(C)CCO` [[DC-7][2NTf2]], the “aggregation state of AmB in the medium (in words)” value in series [1] is “mixture of the aggregated form and monomeric form; also recorded: mixture of monomeric and aggregated AmB”. Also, the solubility at 6 days in series [4] was found to be 10.7 mM. In series [4] (25° C.), the “Ionic Liquid Concentration in D2O (water-solubility)” value worked out at 6 mM. Further, the “zebrafish malformations (in words)” value in the series on zebrafish (Danio rerio) (889 μM, 96 hours post fertilization) is “no malformations”. The “zebrafish survival rate / viability” value in the series with zebrafish (Danio rerio) (889 μM, dilution of saturated water solution, 96 hours post fertilization) was found to be 100%. Moreover, the “in vivo toxicity in zebrafish (in words)” value in the series with zebrafish (Danio rerio) (96 hours post fertilization) is recorded as “does not exhibit toxicity; also recorded: minimal toxicity”; in the series on zebrafish (Danio rerio) (96 hours post fertilization, listed as [CDIL-7][NTf2]) it was “extremely low”.
